Laboratory results taken from patent US7419965B2, “Nucleotide lipid ester derivatives” (Heidelberg Pharma AG, priority 2003, dated 2008).

Assays:
Design in all cases: species or system nude mice
[1] = tested on: human pancreatic carcinoma xenograft AspC1; test: Antitumor activity in human pancreatic carcinoma xenograft model (AspC1) in vivo; conditions: for Tumor inhibition: day 30, vs vehicle control; for Tumor weight (median): ip once daily day 6-10 and 20-23, day 30
Protocol: The antitumor activity of nucleotide conjugate and nucleoside has been compared in the human pancreatic carcinoma xenograft AspC1 model in nude mice.
Tumor bearing mice were randomized on day 6 after AspC1 tumor cell inoculation and were distributed to treatment groups of 10 animals per group. Treatment was started on day 6. The animals were treated intraperitoneally (ip) once daily on day 6-10 and 20-23 with nucleotide conjugate or nucleoside. Dosages included 100 and 50% of the Maximum Tolerable Doses (MTD's). Control animals were treated with solvent (vehicle) only.
(§1) Tumor bearing mice were distributed to treatment groups of 9-10 animals per group. Treatment Treatment cycle(s)(one or two) were performed consisting of once daily intraperitoneal administrations for 5 consecutive days. Dosages were in the range of 6.25% and 100% of the Maximum Tolerated Doses (MTD's). Control animals were treated with solvent (vehicle) only, The percentage of tumor inhibition refers to the median tumor size of the vehicle treated control group and dose groups at the end of each experiment.

[2] = tested on: human ovarian carcinoma xenograft SKOV-3; test: Antitumor activity in human ovarian carcinoma xenograft model (SKOV-3) in vivo; conditions: for Tumor inhibition: end of treatment period (day 17), vs vehicle control; for Tumor volume (median): ip once daily day 6-10 and 13-17, end of treatment (day 17)
Protocol: The antitumor activity of nucleotide conjugate and nucleoside has been compared in the human ovarian carcinoma xenograft SKOV-3 model in nude mice.
Tumor bearing mice were randomized on day 6 after SKOV-3 tumor cell inoculation and were distributed to treatment groups of 9 animals per group. Treatment was started on day 6. The animals were treated intraperitoneally (ip) once daily on day 6-10 and 13-17 with nucleotide conjugate or nucleoside. Dosages ranged between 6.25 and 100% of the Maximum Tolerable Doses (MTD's). Control animals were treated with solvent (vehicle) only.
as §1

[3] = tested on: human prostate carcinoma xenograft PC-3; test: Antitumor activity in human prostate carcinoma xenograft model (PC-3) in vivo; conditions: for Tumor inhibition: day 52, vs vehicle control; for Tumor weight (median): ip once daily for 5 days from day 7, day 52
Protocol: The antitumor activity of nucleoside conjugate and nucleoside has been compared in the human prostate carcinoma xenograft PC-3 model in nude mice.
Tumor bearing mice were randomized on day 7 after PC-3 tumor cell inoculation and were distributed to treatment groups of n=10 animals per group. Treatment was started on day 7. The animals were treated intraperitoneally (ip) once daily for 5 consecutive days with nucleotide conjugate or nucleoside. Dosages included 100 and 50% of the Maximum Tolerable Doses (MTD's). Control animals were treated with the corresponding solvent (vehicle) only. On day 52, the primary tumors were explanted and the tumor weights were determined.
as §1

[4] = tested on: human cervix carcinoma xenograft KB-3-1; test: Antitumor activity in human cervix carcinoma xenograft model (KB-3-1) in vivo; conditions: for Tumor inhibition: day 29, vs vehicle control; for Tumor volume (median): ip once daily days 8-12, day 29
Protocol: The antitumor activity of nucleotide conjugate and nucleoside has been compared in the human cervix carcinoma xenograft KB-3-1 model in nude mice.
Tumor bearing mice were randomized on day 8 after KB-3-1 tumor cell inoculation and were distributed to treatment groups of 9 animals per group. Treatment was started on day 8. The animals were treated intraperitoneally (ip) once daily for 5 consecutive days (days 8-12) with nucleotide conjugate or nucleoside. Dosages included 100 and 50% of the Maximum Tolerable Doses (MTD's). Control animals were injected with solvent (Vehicle).
as §1

[5] = tested on: human breast carcinoma xenograft MDA-MB-231; test: Antitumor activity in human breast carcinoma xenograft model (MDA-MB-231) in vivo; conditions: for Tumor inhibition: day 49, vs vehicle control; for Tumor volume (median): orally once daily days 21-25 and 28-32, day 49
Protocol: The antitumor activity of nucleotide conjugate and its corresponding nucleoside has been compared in the human breast carcinoma xenograft MDA-MB-231 model in nude mice.
Tumor bearing mice were randomized on day 21 after MDA-MB-231 tumor cell inoculation and were distributed to treatment groups of 9 animals per group. Treatment was started on day 21. At this time point the animals had well vascularized tumors of about 400 mg. The animals were treated orally once daily for 2 weeks with nucleotide conjugate and its corresponding nucleoside on days 21-25 and 28-32. Doses ranged from 6.25% to 50% of the Maximum Tolerable Doses (MTD's). Control animals were treated with the solvent (vehicle) only. […]

[6] = tested on: human colon carcinoma xenograft HCT-15; test: Antitumor activity in human colon carcinoma xenograft model (HCT-15) in vivo; conditions: for Tumor weight (median): ip once daily for 5 days from day 8, day 28; for Tumor inhibition: ip once daily for 5 days, day 28, vs vehicle control
Protocol: The antitumor activity of the nucleotide conjugate and its corresponding nucleoside has been compared in the human colon carcinoma xenograft HCT-15 model in nude mice.
Tumor bearing mice were randomized on day 7 after HCT-15 tumor cell inoculation and were distributed to treatment groups of 9 animals per group. Treatment was started on day 8. The animals were treated intraperitoneally (ip) once daily for 5 consecutive days with the nucleotide conjugate or the nucleoside. Dosages included 50 and 25% of the Maximum Tolerable Doses (MTD′s). Control animals were injected with the corresponding solvents (Vehicle 1 or 2). On day 28, the primary tumors were explanted and the tumor weights were determined.
as §1

[7] = 50% MTD (nucleoside 15.0, conjugate 37.5 mg/kg/injection)
[8] = 100% MTD (nucleoside 30.0, conjugate 75.0 mg/kg/injection)
[9] = 25% MTD (nucleoside 7.5, conjugate 18.8 mg/kg/injection)
[10] = 50% MTD (nucleoside 20, conjugate 50 mg/kg/injection)
[11] = 100% MTD (nucleoside 40, conjugate 100 mg/kg/injection)
[12] = 6.25% MTD (nucleoside 2.5, conjugate 12.5 mg/kg)
[13] = 12.50% MTD (nucleoside 5.0, conjugate 25.0 mg/kg)
[14] = 25.00% MTD (nucleoside 10.0, conjugate 50.0 mg/kg)
[15] = 50.00% MTD (nucleoside 20.0, conjugate 100.0 mg/kg)
[16] = 25% MTD (nucleoside 20, conjugate 63 mg/kg/injection)
[17] = 50% MTD (nucleoside 40, conjugate 125 mg/kg/injection)
[18] = HCT-15, Dose 50.00 % MTD as printed in summary table
[19] = HCT-15, Dose 100.00 % MTD as printed in summary table

In the case of Nc1nc(Cl)nc2c1ncn2[C@@H]1O[C@H](CO)[C@@H](O)[C@@H]1F [Nucleoside, 2-Chloro-9-(2′-deoxy-2′-fluoro-β-D arabinofuranosyl)adenine, reference compound], the Tumor inhibition [1, 7] is reported as 30%, the “Tumor weight (median)” value [1, 7] is reported as 160 mg and the Tumor inhibition [1, 8] is reported as 35%. For the same molecule, the “Tumor weight (median)” value [1, 8] was 150 mg, the Tumor inhibition [2, 9] was 37% and the “Tumor volume (median)” value [2, 9] was 162 mm^3. For the same molecule, the Tumor inhibition [2, 7] was 58%, the “Tumor volume (median)” value [2, 7] was 108 mm^3 and the Tumor inhibition [2, 8] was 51%. The “Tumor volume (median)” value [2, 8] was 126 mm^3, the Tumor inhibition [3, 10] was 40% and the “Tumor weight (median)” value [3, 10] was 303 mg. The Tumor inhibition [3, 11] was 60%, the “Tumor weight (median)” value [3, 11] was 202 mg and the Tumor inhibition [4, 10] was 68%. For the same molecule, the “Tumor volume (median)” value [4, 10] was 1059 mm^3, the Tumor inhibition [4, 11] was 49% and the “Tumor volume (median)” value [4, 11] was 1705 mm^3. The Tumor inhibition [5, 12] was 46%, the “Tumor volume (median)” value [5, 12] was 1862 mm^3 and the Tumor inhibition [5, 13] was 84%. The “Tumor volume (median)” value [5, 13] was 550 mm^3, the Tumor inhibition [5, 14] was 95% and the “Tumor volume (median)” value [5, 14] was 172 mm^3. For the same molecule, the Tumor inhibition [5, 15] was 97%, the “Tumor volume (median)” value [5, 15] was 108 mm^3 and the “Tumor weight (median)” value [6, 16] was 431 mg. The Tumor inhibition [6, 16] was 25%, the “Tumor weight (median)” value [6, 17] was 329 mg and the Tumor inhibition [6, 17] was 42%. For the same molecule, the “Tumor inhibition (summary table)” value [6, 18] was 25% and the “Tumor inhibition (summary table)” value [6, 19] was 42%.

In the case of CCCCCCCCCCCCSCC(COP(=O)(O)OC[C@H]1O[C@@H](n2cnc3c(N)nc(Cl)nc32)[C@@H](F)[C@@H]1O)OCCCCCCCCCC (stereo partly drawn) [Nucleotide conjugate, [2-Chloro-9-(2′-deoxy-2′-fluoro-β-D arabinofuranosyl)adenine]-5′-phosphoric acid-(3-dodecylmercapto-2-decyloxy)propyl ester], the Tumor inhibition [1, 7] is reported as 65%, the “Tumor weight (median)” value [1, 7] is reported as 80 mg and the Tumor inhibition [1, 8] is reported as 96%. The “Tumor weight (median)” value [1, 8] was 10 mg, the “Antitumor efficacy compared with Nucleoside” value ([1]; at both doses) was “significantly higher (p<0.01)” and the “Activity relative to nucleoside (conclusion)” value ([1]; conclusion of summary, AspC1) was “Superior activity”. For the same molecule, the Tumor inhibition [2, 9] was 44%, the “Tumor volume (median)” value [2, 9] was 144 mm^3 and the Tumor inhibition [2, 7] was 58%. The “Tumor volume (median)” value [2, 7] was 108 mm^3, the Tumor inhibition [2, 8] was 75% and the “Tumor volume (median)” value [2, 8] was 63 mm^3. The “Antitumor efficacy compared with the nucleoside” value ([2]; at MTD) was “significantly higher (p<0.01)”, the “Activity relative to nucleoside (conclusion)” value ([2]; conclusion of summary, SKOV-3) was “Superior activity” and the Tumor inhibition [3, 10] was 82%. For the same molecule, the “Tumor weight (median)” value [3, 10] was 92 mg, the Tumor inhibition [3, 11] was 87% and the “Tumor weight (median)” value [3, 11] was 64 mg. The “Antitumor efficacy compared with Nucleoside” value ([3]; at both doses) was “significantly higher (p<0.01)”, the “Activity relative to nucleoside (conclusion)” value ([3]; conclusion of summary, PC-3) was “Superior activity” and the Tumor inhibition [4, 10] was 74%. The “Tumor volume (median)” value [4, 10] was 877 mm^3, the Tumor inhibition [4, 11] was 97% and the “Tumor volume (median)” value [4, 11] was 104 mm^3. For the same molecule, the “Antitumor efficacy compared with Nucleoside” value ([4]; at the MTD) was “significantly higher (p<0.01)”, the “Activity relative to nucleoside (conclusion)” value ([4]; conclusion of summary, KB-3-1) was “Superior activity” and the Tumor inhibition [5, 12] was 63%. The “Tumor volume (median)” value [5, 12] was 1267 mm^3, the Tumor inhibition [5, 13] was 94% and the “Tumor volume (median)” value [5, 13] was 196 mm^3. For the same molecule, the Tumor inhibition [5, 14] was 97%, the “Tumor volume (median)” value [5, 14] was 108 mm^3 and the Tumor inhibition [5, 15] was 99%. For the same molecule, the “Tumor volume (median)” value [5, 15] was 51 mm^3, the “Antitumor efficacy compared with the corresponding nucleoside” value ([5]; at all doses) was “significantly (p <0.05) higher” and the “Activity relative to nucleoside (conclusion)” value ([5]; conclusion of summary, MDA-MB-231) was “Superior activity”. For the same molecule, the “Tumor weight (median)” value [6, 16] was 257 mg, the Tumor inhibition [6, 16] was 62% and the “Tumor weight (median)” value [6, 17] was 16 mg. The Tumor inhibition [6, 17] was 98%, the “Tumor inhibition (summary table)” value [6, 18] was 62% and the “Tumor inhibition (summary table)” value [6, 19] was 98%. The “Antitumor efficacy compared with the corresponding nucleoside” value ([6]; at both doses) was “significantly (p<0.01) higher” and the “Activity relative to nucleoside (conclusion)” value ([6]; conclusion of summary, human colon carcinoma xenograft) was “Superior activity”.
